This is an account of results in patent US6130215A, “Piperazinylalkylthiopyrimidine derivatives, pharmaceutical compositions containing the same and a process for the preparation of the novel compounds” (Egis Gyoyszergyar RT, priority 1995, dated 2000).

For test [1], the target named is T1, 5-HT2A receptor (Oryctolagus cuniculus, UniProt G1SYA7).
T1 construct: The thoracic aorta segment after the aortic arch was removed; from tissue; host or cells: rabbit thoracic aorta, helical strips
In words: 5-HT2A receptor antagonistic effect: inhibition of 5-HT-evoked contractions on isolated rabbit aortic strips. The format is cell-based, rabbit (New-Zealand, male, white). The following applies: 5-HT 10^-6 M; phenoxybenzamine 10^-8 M; tranylcypramine 10^-7 M; 10 minutes incubation. The procedure: New-Zealand, male, white rabbits weighing 2.0 to 2.5 kg were killed by a blow on the head. The thoracic aorta segment after the aortic arch was removed and placed into a Krebs' solution (NaCl 118 mM, KCl 4.6 mM, NaHCO3 25 mM, glucose 10.5 mM, […] 1 mM, KH2PO4 1 mM, CaCl2 2.6 mM). The aorta was carefully cleaned from fat and connective tissue, and was cut into 3 mm wide and 30 mm long helical strips. Four strips were obtained from each rabbit. The strips were equilibrated at 37° C. for 60 minutes in an organ chamber filled with Krebs' solution. The strips were also oxygenated by bubbling carbogen gas (5% of carbon dioxide and 95% of oxygen) through the solution. The strips were stretched by 1 g tension.
The contractions were measured by a Hugo Sachs K-30 type strain gauge, and were registered on a Multicorder type polygraph. During the last 40 minutes of the equilibration, the MAO enzym inhibitor tranylcypramine (10^-7 M) /chemical name: (±)-trans-2-phenylcyclopropylamine/ was also added to the bath.
Any alpha-adrenergic effects of the test compounds were eliminated by 10^-8 M of phenoxybenzamine /N-(2-chloroethyl)-N-(1-methyl-2-phenoxyethyl)benzylamine/ /Clancy et al., J. Pharm. Exp. Ther., 233, 761 (1985). Testing of the serotonergic antagonistic effect was started at the 90th minute of incubation. The stability and reproducibility of the contractile response of the aortic strips to serotonin was tested by two consecutive application and wash-out procedures of 10^-6 M concentration of 5-HT, 40 minutes apart. […] 30 minutes after the second testing, a preset concentration of the test compound was added to the bath, and, after a 10 minutes incubation time, the response to 10^-6 M of 5-HT was determined in the presence of the compound to be tested.
Two different concentrations of a given compound were tested on each aortic strip by the above method. Reproducibility of the control 5-HT-evoked response was checked between testing the two concentrations of the compound.
IC50 was calculated by nonlinear curve fitting of the inhibitory effect of increasing concentrations of the test compound.

In another test the target is T2, 5-HT2C receptor (Sus scrofa, UniProt K7GSR7).
T2 construct: pig brain choroid plexus membrane preparation; from tissue; host or cells: pig brain choroid plexus membrane preparation
T2 sequence (K7GSR7 1-457): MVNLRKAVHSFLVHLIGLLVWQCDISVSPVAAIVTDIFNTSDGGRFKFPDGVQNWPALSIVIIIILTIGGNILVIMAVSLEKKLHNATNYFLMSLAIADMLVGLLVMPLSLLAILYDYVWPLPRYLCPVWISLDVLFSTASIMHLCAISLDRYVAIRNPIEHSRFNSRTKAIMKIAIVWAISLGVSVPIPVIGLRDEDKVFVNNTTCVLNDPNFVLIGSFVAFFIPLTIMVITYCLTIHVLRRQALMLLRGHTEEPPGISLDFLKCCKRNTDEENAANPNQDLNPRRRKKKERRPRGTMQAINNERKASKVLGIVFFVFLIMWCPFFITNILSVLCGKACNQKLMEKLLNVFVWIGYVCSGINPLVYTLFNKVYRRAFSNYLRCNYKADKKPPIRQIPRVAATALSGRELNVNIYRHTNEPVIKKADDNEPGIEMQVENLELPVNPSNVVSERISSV
The test can be described thus: 5-HT2C receptor binding ([3H]mesulergine, pig brain choroid plexus membrane preparation). The conditions noted are these: tritiated mesulergine, 37° C., read-out: Inhibition of receptor binding of the radioactive ligand, 5-HT2C (Ki). The procedure: (§1) 5-HT2A and 5-HT2C receptor binding was measured according to the methods described by Leysen et al. /Mol. Pharmacol., 21, 301 (1981)/ and Pazos et al. /Eur. J. Pharmacol., 106, 539 (1985)/, respectively. 5-HT2A receptor binding was measured in rat brain frontal cortex membrane preparation using tritiated ketanserine /3-/2-(4-fluorobenzoyl)- -1-piperidinyl/ethyl-2,4-(1H,3H)-quinazoline-dione/(60-90 Ci/mmole) as ligand. 5-HT2C receptor binding was measured in pig brain choroid plexus membrane preparation using tritiated mesulergine /N'-/(8)-1,6-dimethyl-ergoline-8-yl/-N,N-dimethylsulfamide (70-85 Ci/mmole) as the ligand. Non-specific binding to 5-HT2A and 5-HT2C receptors were determined in the presence of 10 micro M cyproheptadine/4-(5H-dibenzo/a,d/cycloheptene-5-ylidene)-1-methylpiperidine/ and 1 micro M mianserine/1,2,3,4,10,14b-hexahydro-2-methyldibenzo-/c,f/pyrazino/1,2-a/azepine/, respectively. The final incubation volumes were 250 and 1000 microlitres. Samples were incubated for 15 and 30 minutes at 37° C. Incubation was stopped by adding 9 ml of ice-cold 50 mM tris(hydroxymethyl)-aminomethane hydrochloride (pH=7.7) to the reaction mixture. The samples were rapidly filtered through Whatman GF/B glass fiber filters using reduced pressure. Before use, the filters were soaked in a 0.05% poly-ethyleneimine solution for 2 to 3 hours. Radioactivity of the filters was determined by a scintillation spectrometer.

The target of test [2] is T3, 5-HT2A receptor (Rattus norvegicus, UniProt P14842).
T3 construct: rat brain frontal cortex membrane preparation; from tissue; host or cells: rat brain frontal cortex membrane preparation
T3 sequence (P14842 whole entry): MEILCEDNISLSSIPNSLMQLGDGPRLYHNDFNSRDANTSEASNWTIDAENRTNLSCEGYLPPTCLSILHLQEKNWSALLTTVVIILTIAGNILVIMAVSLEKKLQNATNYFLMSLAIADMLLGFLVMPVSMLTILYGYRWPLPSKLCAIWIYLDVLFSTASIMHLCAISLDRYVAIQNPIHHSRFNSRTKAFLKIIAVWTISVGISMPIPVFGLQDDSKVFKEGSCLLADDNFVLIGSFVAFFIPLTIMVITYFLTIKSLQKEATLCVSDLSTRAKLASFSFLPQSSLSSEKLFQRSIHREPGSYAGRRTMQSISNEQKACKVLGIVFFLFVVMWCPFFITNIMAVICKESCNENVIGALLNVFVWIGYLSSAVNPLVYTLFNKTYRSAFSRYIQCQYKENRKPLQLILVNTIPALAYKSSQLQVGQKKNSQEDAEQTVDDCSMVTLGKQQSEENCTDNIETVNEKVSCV
In words: 5-HT2A receptor binding ([3H]ketanserine, rat brain frontal cortex membrane preparation). The following applies: tritiated ketanserine, 37° C., read-out: Inhibition of receptor binding of the radioactive ligand, 5-HT2A (Ki). The procedure: as §1

The structures appear in SMILES notation. Where only a bound is given, the exact number is not on record here.

T1 sequence (G1SYA7 1-469): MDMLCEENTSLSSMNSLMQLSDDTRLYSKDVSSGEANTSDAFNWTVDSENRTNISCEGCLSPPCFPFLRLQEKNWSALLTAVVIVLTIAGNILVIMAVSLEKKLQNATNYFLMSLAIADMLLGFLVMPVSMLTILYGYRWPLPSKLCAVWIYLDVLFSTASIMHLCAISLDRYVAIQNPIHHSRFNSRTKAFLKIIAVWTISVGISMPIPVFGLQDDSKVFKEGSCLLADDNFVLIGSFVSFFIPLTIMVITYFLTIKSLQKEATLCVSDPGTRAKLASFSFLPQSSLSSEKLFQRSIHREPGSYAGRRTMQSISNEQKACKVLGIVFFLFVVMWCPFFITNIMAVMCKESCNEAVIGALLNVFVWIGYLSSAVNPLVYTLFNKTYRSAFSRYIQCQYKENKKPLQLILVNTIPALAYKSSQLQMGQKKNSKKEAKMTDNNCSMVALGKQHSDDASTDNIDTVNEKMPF

The term IC50 denotes the concentration at which inhibition is half-maximal. High values mean weaker potency, low ones greater potency. One may read the Ki as a dissociation constant, usually derived from enzyme kinetics or from competition with a known ligand. The compound `Nc1cc(N)nc(SCCN2CCN(Cc3ccc(F)cc3)CC2)n1` [Example 3, 2-[2-/4-(4-Fluorobenzyl)-1-piperazinyl/-ethylthio]-7-4,6-diaminopyrimidine] yielded an IC50 at 5-HT2A receptor [1] of 960 nM. Moreover, the results for the Ki on 5-HT2C receptor and at 5-HT2A receptor [2] were more than 100 nM and 58 nM, respectively.
On the same counts, the results for `Nc1cc(N)nc(SCCN2CCN(Cc3ccccc3Cl)CC2)n1` [Example 5, 2-[2-/4-(2-Chlorobenzyl)-1-piperazinyl/-ethylthio]-4,6-diaminopyrimidine] are 250 nM, 67 nM and 16 nM.
On to `COc1cccc(CN2CCN(CCSc3nc(N)c(Cc4ccccc4)c(N)n3)CC2)c1` [Example 12, 2-[2-/4-(3-Methdxybenzyl)-1-piperazinyl/-ethylthio]-4,6-diamino-5-benzylpyrimidine], for which the Ki was 47 nM at 5-HT2C receptor and more than 100 nM at 5-HT2A receptor [2].
At 5-HT2A receptor [1], `Nc1nc(SCCN2CCN(Cc3ccccc3Cl)CC2)nc(N)c1Cc1ccccc1` [Example 13, 2-[2-/4-(2-Chlorobenzyl)-1-piperazinyl/-ethylthio]-4,6-diamino-5-benzylpyrimidine] gave an IC50 of 120 nM. For the same compound, the Ki at 5-HT2C receptor is 12 nM; at 5-HT2A receptor [2], 20 nM.
On the same counts, the results for `Nc1nc(SCCN2CCN(Cc3ccc([N+](=O)[O-])cc3)CC2)nc(N)c1Cc1ccccc1` [Example 14, 2-[2-/4-(4-Nitrobenzyl)-1-piperazinyl/-ethylthio]-4,6-diamino-5-benzylpyrimidine] are 6000 nM, more than 100 nM and 78 nM.
Consider `Nc1nc(SCCN2CCN(Cc3ccc([N+](=O)[O-])cc3)CC2)nc(N)c1Cc1ccccc1O` [Example 19, 2-[2-/4-(4-Nitrobenzyl)-1-piperazinyl/-ethylthio]-4,6-diamino-5-(2-hydroxybenzyl)-pyrimidine], for which the Ki is more than 100 nM on 5-HT2C receptor and 48 nM on 5-HT2A receptor [2].
On the same counts, the results for `Nc1nc(SCCN2CCN(Cc3cccc(C(F)(F)F)c3)CC2)nc(N)c1Cc1ccc(F)cc1` [Example 21, 2-[2-/4-(3-Trifluoromethylbenzyl)-1-piperazinyl/ethylthio]4,6-diamino-5-(4-fluorobenzyl)pyrimidine] are 39 nM and more than 100 nM.
On 5-HT2A receptor [1], `COc1ccc(Cc2c(N)nc(SCCN3CCN(Cc4ccc(C)cc4)CC3)nc2N)cc1` [Example 23, 2-[2-/4-(4-Methylbenzyl)-1-piperazinyl/-ethylthio]-4,6-diamino-5-(4-methoxybenzyl)-pyrimidine] displayed an IC50 of 670 nM. The results for the Ki on 5-HT2C receptor and at 5-HT2A receptor [2] were more than 100 nM and 20 nM, respectively.
Compound `COc1ccc(Cc2c(N)nc(SCCN3CCN(Cc4ccccc4C)CC3)nc2N)cc1` [Example 24, 2-[2-/4-(2-Methylbenzyl)-1-piperazinyl/-ethylthio]-4,6-diamino-5-(4-methoxybenzyl)-pyrimidine] showed an IC50 at 5-HT2A receptor [1] of 240 nM. Besides, the Ki on 5-HT2C receptor came to 22 nM; on 5-HT2A receptor [2], 18 nM.
In turn, `COc1ccc(Cc2c(N)nc(SCCN3CCN(Cc4ccccc4C#N)CC3)nc2N)cc1` [Example 27, 2-[2-/4-(2-Cyanobenzyl)-1-piperazinyl/-ethylthio]-4,6-diamino-5-(4-methoxybenzyl)-pyrimidine] came in with an IC50 against 5-HT2A receptor [1] of 900 nM.
Turning to `COc1ccc(Cc2c(N)nc(SCCN3CCN(Cc4cccc(OC)c4)CC3)nc2N)cc1` [Example 28, 2-[2-/4-(3-Methoxybenzyl)-1-piperazinyl/-ethylthio]-4,6-diamino-5-(4-methoxybenzyl)-pyrimidine], the Ki on 5-HT2C receptor was 50 nM; at 5-HT2A receptor [2], more than 100 nM.
On the same counts, the results for `COc1ccccc1Cc1c(N)nc(SCCN2CCN(Cc3ccc([N+](=O)[O-])cc3)CC2)nc1N` [Example 34, 2-[2-/4-(4-Nitrobenzyl)-1-piperazinyl/-ethylthio]-4,6-diamino-5-(2-methoxy-benzyl)pyrimidine] are more than 100 nM and 71 nM.
On the same counts, the results for `COc1ccc(Cc2c(N)nc(SCCN3CCN(Cc4cccc(C(F)(F)F)c4)CC3)nc2N)cc1` [Example 35, 2-[2-/4-(3-Trifluoromethylbenzyl)-1-piperazinyl/-ethyl-thio]-4,6-diamino-5-(4-methoxybenzyl)pyrimidine] are 69 nM and more than 100 nM.
As for `COc1ccccc1Cc1c(N)nc(SCCN2CCN(Cc3cccc(C(F)(F)F)c3)CC2)nc1N` [Example 36, 2-[2-/4-(3-Trifluoromethylbenzyl)-1-piperazinyl/ethylthio]-4,6-diamino-5-(2-methoxybenzyl)pyrimidine], the Ki is 18 nM on 5-HT2C receptor and more than 100 nM on 5-HT2A receptor [2].
Compound `Cc1ccccc1CN1CCN(CCSc2nc(N)c(Cc3ccccc3Cl)c(N)n2)CC1` [Example 39, 2-[2-/4-(2-Methylbenzyl)-1-piperazinyl/-ethylthio]-4,6-diamino-5-(2-chloro-benzyl)pyrimidine] registered an IC50 at 5-HT2A receptor [1] of 300 nM. For the same compound, at 5-HT2C receptor, the Ki is 27 nM.
As to `Cc1ccc(CN2CCN(CCSc3nc(N)c(Cc4ccccc4Cl)c(N)n3)CC2)cc1` [Example 40, 2-[2-/4-(4-Methylbenzyl)-1-piperazinyl/-ethylthio]-4,6-diamino-5-(2-chlorobenzyl)-pyrimidine], the Ki at 5-HT2C receptor was more than 100 nM; at 5-HT2A receptor [2] it was 21 nM.
On the same counts, the results for `Nc1nc(SCCN2CCN(Cc3ccccc3Cl)CC2)nc(N)c1Cc1ccc(Cl)cc1` [Example 47, 2-[2-/4-(2-Chlorobenzyl)-1-piperazinyl/ethylthio]-4,6-diamino-5-(4-chlorobenzyl)-pyrimidine] are 33 nM and more than 100 nM.
The compound `CN(C)c1ccc(Cc2c(N)nc(SCCN3CCN(Cc4ccccc4C#N)CC3)nc2N)cc1` [Example 54, 2-[2-/4-(2-Cyanobenzyl)-1-piperazinyl/-ethylthio]-4,6-diamino-5-(4-dimethylamino-benzyl)pyrimidine] registered an IC50 against 5-HT2A receptor [1] of 570 nM.
For `COc1ccc(CN2CCN(CCSc3nc(N)c(Cc4cc(OC)c(OC)c(OC)c4)c(N)n3)CC2)cc1` [Example 66, 2-[2-/4-(4-Methoxybenzyl)-1-piperazinyl/-ethylthio]-4,6-diamino-5-(3,4,5-trimethoxy-benzyl)pyrimidine], the Ki on 5-HT2C receptor is more than 100 nM; on 5-HT2A receptor [2], 61 nM.
The corresponding values for `CN(C)c1ccc(Cc2c(N)nc(SCCN3CCN(Cc4ccccc4Cl)CC3)nc2N)cc1` [Example 101, 2-[2-/4-(2-Chlorobenzyl)-1-piperazinyl/-ethylthio]-4,6-diamino-5-(4-dimethylamino-benzyl)pyrimidine] are 24 nM and 16 nM.
